Reference: publication PMC10485906, “Development of a Dihydroquinoline–Pyrazoline GluN2C/2D-Selective Negative Allosteric Modulator of the N-Methyl-D-aspartate Receptor” (ACS Chemical Neuroscience, 2023)
Where “and” joins values, the source holds several entries; their conditions need not be identical. Equal values may be shown once. Marks after values point to notes of the source that are not given here.

How the values were obtained:
[1] = target: T1, GluN1/GluN2A (Rattus norvegicus, UniProt P35439+Q00959); assay: Two-electrode voltage-clamp recordings, Xenopus laevis oocytes, GluN1/GluN2A; type: cell-based; details: 100 μM glutamate, 30 μM glycine; for remaining activity at 30 µM: 30 μM test compound, mean ± SEM, read-out: I 30 μM / I control GluN2A; for IC50: read-out: IC50 GluN2A [95% CI]
T1 construct: expressed in transfected cells; host or cells: Xenopus laevis oocytes (cRNA injection)
Experimental: (§1) All target compounds were evaluated for NMDAR antagonism using two-electrode voltage-clamp recordings from Xenopus laevis oocytes coexpressing recombinant GluN1 and GluN2A-D subunits (Table 1).[32],[42],[33] All analogues were assessed as either a racemic (2b, 2e–2r) or diastereomeric (2d) mixture to simplify purification and streamline in vitro analysis. […] Moreover, as illustrated by the significant loss of NMDAR activity observed with nitrile 2e, the DQP allosteric site necessitated an H-bond donor/acceptor relationship at the carboxylate position. […] The loss of NMDAR activity observed with the trifluoro analogue 2j (Table S1) reinforced the necessity for an H-bond donor/acceptor relationship to maintain allosteric binding and established that fluorine substitution alone is ineffective. […] A single methyl substitution of the amide in compound 2q improved selectivity against GluN2A and had similar potency as 2a, whereas dual methyl substitution reduced potency (2r). We expect that this is likely due to the ability of the […] of the amide to accept hydrogen bonds while the amide can readily donate a proton.
(§2) Unfertilized Xenopus laevis oocytes were obtained from Ecocyte (Austin, TX), or ovaries were purchased from Xenopus 1 (Dexter, MI) and oocytes prepared as previously described.[42],[47] Two-electrode voltage-clamp recordings were performed on oocytes expressing recombinant rat GluN1/GluN2A, GluN1/GluN2B, GluN1/GluN2C, or GluN1/GluN2D. cDNAs for rat GluN1-1a (referred to as GluN1; NCBI Reference Sequence NM_017010.2), GluN2A (NM_012573.4), GluN2B (NM_012574.1), GluN2C (NM_012575.3), and GluN2D (NM_022797.2) were provided by Dr. S. Heinemann from the Salk Institute, Dr. S. Nakanishi from Kyoto University, and Dr. P. Seeburg from the University of Heidelberg. Oocyte isolation, cRNA synthesis, and cRNA injections were performed as previously described.[32],[33],[47] Briefly, Xenopus laevis oocytes were injected with 5–10 ng of cRNA in RNase-free water with the GluN1:GluN2 ratio ranging from 1:1 to 1:5. Oocytes were incubated at 15–19 °C in Barth’s solution consisting of (in mM) 88 NaCl, 1 KCl, 2.4 NaHCO3, 10 HEPES, 0.82 MgSO4, 0.33 Ca(NO3)2, and 0.41 CaCl2 supplemented with 100 μg/mL gentamycin, 40 μg/mL streptomycin, and 50 μg/mL penicillin. Recordings were performed 2–4 days after injection with extracellular recording solution containing (in mM) 90 NaCl, 1 KCl, 10 HEPES, 0.5 BaCl2, and 0.01 EDTA at pH 7.4 adjusted with NaOH. To prevent a gradual increase in current response over the course of the experiment, some oocytes expressing GluN1/GluN2A were injected with 20–50 nL of 2–50 mM K-BAPTA. Concentration–response curves for test compounds were generated by applying a maximally effective concentration of glutamate (100 μM) and glycine (30 μM), followed by glutamate and glycine with variable concentrations of test compounds up to 30 μM. The test compounds were prepared as 20 mM stock solutions in DMSO and diluted to the final concentration in recording solution. The DMSO content was 0.05–0.5% (v/v). […] Methods for off-target analysis are given in the Supporting Information.
(§3) Confidence intervals were determined for the log(IC50). The time course of relaxation during inhibitor application or deactivation following rapid removal of NMDA or glutamate was fitted by the equation [drawing 5] 2

[2] = target: T2, GluN1/GluN2A (Rattus norvegicus, UniProt Q00959); assay: as above; type: cell-based; details: mean ± SEM; for I / I control GluN2A: tested at 10 μM (footnote b); for I / I control GluN2A / I3 μM/Icontrol GluN2A: 100 μM glutamate, 30 μM glycine; for I3 μM/Icontrol GluN2A: tested at 3 μM
T2 construct: expressed in transfected cells; host or cells: Xenopus laevis oocytes (cRNA injection)
Experimental: as §1, §2, §3

T1 sequence (Q00959 23-1464, other chains not shown): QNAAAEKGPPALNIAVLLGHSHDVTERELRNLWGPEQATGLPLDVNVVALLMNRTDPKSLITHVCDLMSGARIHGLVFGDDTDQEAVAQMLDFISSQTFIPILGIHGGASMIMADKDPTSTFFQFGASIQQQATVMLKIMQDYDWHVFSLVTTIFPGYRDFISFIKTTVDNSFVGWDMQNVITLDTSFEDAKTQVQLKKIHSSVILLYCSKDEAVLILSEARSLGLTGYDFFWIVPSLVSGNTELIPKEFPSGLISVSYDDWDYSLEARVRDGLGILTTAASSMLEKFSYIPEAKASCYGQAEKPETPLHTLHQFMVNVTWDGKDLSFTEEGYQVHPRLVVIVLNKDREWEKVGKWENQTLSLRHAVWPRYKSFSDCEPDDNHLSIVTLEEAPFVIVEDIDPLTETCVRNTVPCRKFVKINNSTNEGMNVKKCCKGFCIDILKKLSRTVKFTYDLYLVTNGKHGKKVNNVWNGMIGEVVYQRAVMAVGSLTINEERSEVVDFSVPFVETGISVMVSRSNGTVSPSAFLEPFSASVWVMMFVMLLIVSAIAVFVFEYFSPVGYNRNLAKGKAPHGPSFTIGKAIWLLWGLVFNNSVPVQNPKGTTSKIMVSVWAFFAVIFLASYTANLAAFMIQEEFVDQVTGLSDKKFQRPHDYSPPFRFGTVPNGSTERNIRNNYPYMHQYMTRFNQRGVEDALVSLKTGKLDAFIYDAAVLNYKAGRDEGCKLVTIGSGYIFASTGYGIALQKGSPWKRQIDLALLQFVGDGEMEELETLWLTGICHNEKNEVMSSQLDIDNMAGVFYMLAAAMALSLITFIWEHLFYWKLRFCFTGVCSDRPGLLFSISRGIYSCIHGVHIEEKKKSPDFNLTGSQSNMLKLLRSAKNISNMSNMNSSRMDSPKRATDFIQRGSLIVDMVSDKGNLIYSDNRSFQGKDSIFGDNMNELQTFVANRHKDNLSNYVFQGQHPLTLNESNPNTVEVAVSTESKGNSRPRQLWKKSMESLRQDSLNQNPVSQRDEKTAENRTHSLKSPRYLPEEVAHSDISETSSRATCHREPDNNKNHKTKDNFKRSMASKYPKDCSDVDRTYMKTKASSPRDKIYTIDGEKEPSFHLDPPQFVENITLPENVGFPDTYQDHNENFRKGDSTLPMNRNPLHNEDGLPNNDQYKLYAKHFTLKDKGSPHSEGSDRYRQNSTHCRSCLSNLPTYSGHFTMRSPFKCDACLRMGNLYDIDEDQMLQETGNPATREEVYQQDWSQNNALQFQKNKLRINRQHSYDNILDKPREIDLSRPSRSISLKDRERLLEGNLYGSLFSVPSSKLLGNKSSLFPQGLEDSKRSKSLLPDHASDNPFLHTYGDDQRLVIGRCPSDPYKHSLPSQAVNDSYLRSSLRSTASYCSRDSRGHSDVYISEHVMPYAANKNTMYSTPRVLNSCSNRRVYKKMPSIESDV
T2 sequence (Q00959 23-1464, other chains not shown): as above

Row | remaining activity at 30 µM [1] | I / I control GluN2A [2] | I3 μM/Icontrol GluN2A [2] | IC50 [1] | SMILES | further results
1 | 105 ± 0.72% |  |  |  | O=C(CC(F)(F)C(=O)N1N=C(c2c(-c3ccc(Cl)cc3)c3ccccc3[nH]c2=O)CC1c1ccc(Cl)cc1)OCc1ccccc1 (stereo not shown) [2p] | 
2 |  | 70 ± 3.9 ^b (3,13) % |  |  | CN(C)C(=O)CC(F)(F)C(=O)N1N=C(c2c(-c3ccc(Cl)cc3)c3ccccc3[nH]c2=O)CC1c1ccc(Cl)cc1 (stereo not shown) [2r] | 
3 |  |  | 67 ± 2.0 (3, 14) % | 4.7 µM | O=C(O)CC(F)(F)C(=O)N1N=C(c2c(-c3ccc(Cl)cc3)c3ccccc3[nH]c2=O)C[C@H]1c1ccc(Cl)cc1 [(S)-(−)-2i] | % control GluN1/GluN2A ([2]; 1 µM compound, 100 µM glutamate, 30 µM glycine): 74 ± 2.1%
4 | 100 ± 3.2% |  |  |  | CCOC(=O)CC(F)(F)C(=O)N1N=C(c2c(-c3ccc(Cl)cc3)c3ccccc3[nH]c2=O)CC1c1ccc(Cl)cc1 (stereo not shown) [2l] | 
5 |  | 97 ± 2.2% |  |  | CC(C)(C)COC(=O)CC(F)(F)C(=O)N1N=C(c2c(-c3ccc(Cl)cc3)c3ccccc3[nH]c2=O)CC1c1ccc(Cl)cc1 (stereo not shown) [2o] | 
6 |  | 83 ± 3.9 ^b (2,12) % |  | 37 µM | CNC(=O)CC(F)(F)C(=O)N1N=C(c2c(-c3ccc(Cl)cc3)c3ccccc3[nH]c2=O)CC1c1ccc(Cl)cc1 (stereo not shown) [2q] | 
7 |  |  | 35 ± 6.5 ^b (3,9) % | 5.8 µM | NC(=O)CC(F)(F)C(=O)N1N=C(c2c(-c3ccc(Cl)cc3)c3ccccc3[nH]c2=O)CC1c1ccc(Cl)cc1 (stereo not shown) [2k] | 
8 | 100 ± 1.3% |  |  |  | O=C(CC(F)(F)C(=O)N1N=C(c2c(-c3ccc(Cl)cc3)c3ccccc3[nH]c2=O)CC1c1ccc(Cl)cc1)OCC1CC1 (stereo not shown) [2n] | 
9 |  |  | 61 ± 2.4% and 61 ± 2.4 ^b (2,10) % | 5.6 µM | O=C(O)CC(F)(F)C(=O)N1N=C(c2c(-c3ccc(Cl)cc3)c3ccccc3[nH]c2=O)CC1c1ccc(Cl)cc1 (stereo not shown) [2i] | I3 μM/Icontrol GluN2A ([2]; listed as racemic 2i): 61 ± 2.4 (2, 10) %
10 | 97 ± 2.3% |  |  |  | CC(C)OC(=O)CC(F)(F)C(=O)N1N=C(c2c(-c3ccc(Cl)cc3)c3ccccc3[nH]c2=O)CC1c1ccc(Cl)cc1 (stereo not shown) [2m] | 
